Data reported in patent publication US20240122974A1, “TREATMENT OF MYOPIA” (University of Utah Research Foundation, priority 2021, published 2024).
Like-named read-outs stand apart in the source and are kept apart here.

Legend:
lysyl oxidase (LOX) [1] = biological target: T1, lysyl oxidase (LOX) (Homo sapiens, UniProt P28300)
Description: To examine LOX activity in normal corneal cells with copper perchlorate and to compare activity with copper sulfate, cultured corneal stroma cells from normal corneas (n=3 each) in 10% fetal bovine serum (FBS) DMEM were either exposed to copper sulfate or copper perchlorate in BSS then filtered through a 0.25 μm filter. Conditioned culture medium underwent a peroxidase-coupled fluorometric activity assay for LOX using Amplex red. As a parallel assay, we added 500 uM aminopropionitrile (BAPN) which can diminish LOX activity completely. The fluorescence of oxidized Amplex red was recorded every 10 minutes using fluorescence plate reader. After subtracting the background fluorescence, the fluorescence intensity was plotted against the incubation time (FIG. 1).
Target sequence in this assay (P28300 169-417): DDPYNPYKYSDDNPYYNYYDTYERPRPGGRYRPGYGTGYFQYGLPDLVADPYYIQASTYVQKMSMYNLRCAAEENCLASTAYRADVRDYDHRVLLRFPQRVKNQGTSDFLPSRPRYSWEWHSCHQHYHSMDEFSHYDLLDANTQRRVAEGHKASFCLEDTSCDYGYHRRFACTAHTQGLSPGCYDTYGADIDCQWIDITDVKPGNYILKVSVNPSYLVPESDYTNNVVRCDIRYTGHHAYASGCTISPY

[2] = tested on: sclera of guinea pig pups; conditions: 0.08 mg/mL copper perchlorate hexahydrate eye drops twice a day, 6-8 weeks, n=5; untreated sclera 3.9×10^−4; p=0.036
Description: Lysyl oxidase converts lysine to allysine, and conjugates it to lysine or hydroxylysine spontaneously, becoming lysinonorleucine (LNL), an established biomarker of collagen crosslinking. […] After 6 weeks the scleras were dissected and analyzed for LNL content using mass spectroscopy (LC-MS). Semi-quantitative mass spectral analysis was performed using a Sciex 6500 Q-Trap (Sciex, Framingham, MA).

[3] = tested on: sclera of guinea pig pups; conditions: 0.08 mg/mL copper perchlorate hexahydrate eye drops twice a day, 8 weeks, n=3, vs untreated sclera, FIG. 3
Description: After eight weeks the sclera was dissected for creep compliance testing. Compliance was tested using an Instrong 5943 Mechanical Testing system with custom grips and a 5 N Futek load cell. Each of the six specimens were loaded to 0.005 kgf, corresponding to an equivalent pressure of 12.0-16.6 mmHg depending on specimen dimensions.

[4] = tested on: genetic model of guinea pig myopia; conditions: 0.22 mg/ml once a day
Description: 0.22 mg/ml copper perchlorate was administered once a day for approximately 3 months to right eye only. The cycloplegic refraction was measured biweekly by a masked pediatric ophthalmologist.

lysyl oxidase (LOX) [5] = biological target: T1, lysyl oxidase (LOX); conditions: normal sclera cells, FIG. 8
Target sequence in this assay (P28300 169-417, species assumed): as the sequence (P28300 169-417) above

[6] = tested on: spontaneous myopic albino guinea pigs; test: Spontaneous myopic progression in albino guinea pig pups; conditions: 0.22 mg/mL twice a day
Description: Spontaneous myopic albino guinea pigs were used as a model of pediatric myopia. […] Pups of albino guinea pigs were used as a pediatric model starting at age 4-7 days. In this group of n=5 pups, all left eyes were untreated (internal control). The other eye (right eye) was treated with 0.22 mg/mL copper perchlorate hexahydrate twice a day. Treatment started at approximately 1 week of age and continued for approximately 2 months. Measurements were taken between 5-7 days of age (baseline-no treatment) and then biweekly. We examined refractive error by streak retinoscopy after dilation, and axial length by Lenstar biometry (Haag-Streit). Cycloplegic refractive error and cornea inflammation was measured by a masked pediatric ophthalmologist.

[7] = tested on: genetic model of guinea pig myopia; test: Genetic model of guinea pig myopia, 0.35 mg/ml eye drops twice a day
Description: Copper perchlorate was administered at 0.35 mg/ml to guinea pigs.

Structure (SMILES): O.O.O.O.O.O.[Cu+2].[O-][Cl+3]([O-])([O-])[O-].[O-][Cl+3]([O-])([O-])[O-] [copper perchlorate, copper (II) perchlorate hexahydrate]
- LOX activity compared with the same molar concentration of copper sulfate (lysyl oxidase (LOX) [1]; concentrations as low as 100 nM): increased LOX activity more than the same molar concentration of copper sulfate
- induction of LOX activity compared with copper sulfate (lysyl oxidase (LOX) [1]; keratoconic human cornea stroma cells, concentration as low as 100 nM, FIG. 1B): higher induction of LOX activity than copper sulfate
- LOX enzyme activity (lysyl oxidase (LOX) [1]; normal corneal stroma cells, conditioned culture medium, FIG. 1a): dramatically increased LOX enzyme activity in a dose response manner
- LNL response in treated sclera [2]: 0.00069 µg/mg
- scleral creep compliance [3]: decreased creep compliance
- more myopia developed in untreated left eyes than in treated right eyes (change from baseline) ([4]; Day 81): 2.27 diopters
- slope analysis: refractive error decrease, untreated left eye more than treated right eye ([4]; about 3 months, right eye only, p=0.0189): 0.027(sd=0.011) per day
- LOX enzyme activity (lysyl oxidase (LOX) [5]): dramatically increased LOX enzyme activity in a dose response manner
- axial length, treated eye (OD) compared to control eye (OS) ([6]; FIG. 5): trend of reducing
- vitreous chamber depth, treated eye (OD) compared to control eye (OS) ([6]; FIG. 5): trend of reducing
- clinical observations of toxicity or discoloration of corneas ([6]; about 2 months, topical to right eye): no toxicity or discoloration
- slowing of myopic progression in refractive error ([6]; within 9 weeks of treatment, treated vs control eye, n=5): 48%
- myopia at the end of the experiment, treated versus control eyes ([7]; n=5): significantly less myopic
- axial elongation, treated versus control eye ([7]; n=5, p<0.05): significantly reduced
- vitreous chamber depth elongation, treated versus control eye ([7]; n=5, p<0.05): significantly reduced
